Data as given in patent US12636285B2 (ViiV Healthcare Company, priority 2019, dated 2026).

Key:
[1] = Multiple-dose pharmacokinetics after monthly IM injections, population PK post-hoc estimates FLAIR and ATLAS; assay type: in vivo, human; settings: 400-mg monthly IM injection
[2] = target: T1, renal organic anion transporters (OAT)1 (Homo sapiens, UniProt Q4U2R8); experiment: In vitro transporter inhibition, OAT1; assay type: in vitro ADME
T1 sequence (Q4U2R8 1-563): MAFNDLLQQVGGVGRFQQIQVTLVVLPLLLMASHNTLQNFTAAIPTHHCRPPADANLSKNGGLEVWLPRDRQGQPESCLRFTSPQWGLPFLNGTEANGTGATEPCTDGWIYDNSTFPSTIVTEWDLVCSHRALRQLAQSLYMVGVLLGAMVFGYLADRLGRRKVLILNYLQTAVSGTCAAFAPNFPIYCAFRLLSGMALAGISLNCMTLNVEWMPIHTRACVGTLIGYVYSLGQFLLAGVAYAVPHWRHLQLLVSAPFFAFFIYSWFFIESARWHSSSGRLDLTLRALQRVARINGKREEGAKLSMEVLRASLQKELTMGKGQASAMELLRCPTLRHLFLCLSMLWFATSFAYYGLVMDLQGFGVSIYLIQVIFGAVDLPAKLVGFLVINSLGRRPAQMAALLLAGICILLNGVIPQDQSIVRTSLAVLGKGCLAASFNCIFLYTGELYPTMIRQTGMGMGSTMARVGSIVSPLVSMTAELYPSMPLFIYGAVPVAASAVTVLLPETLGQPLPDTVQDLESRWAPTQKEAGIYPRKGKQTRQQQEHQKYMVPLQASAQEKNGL
From the text: However, based on PBPK modeling, no interaction with OAT substrates is expected at clinically relevant concentrations.

**Q.** Which “Ctrough, geometric mean” value [1] does the source give for C[C@H]1CO[C@@H]2Cn3cc(C(=O)NCc4ccc(F)cc4F)c(=O)c(O)c3C(=O)N12 [Cabotegravir, (3S,11aR)-N-[(2,4-difluorophenyl)methyl]-6-hydroxy-3-methyl-5,7-dioxo-2,3,5,7,11,11a-hexahydro[1,3]oxazolo[3,2-a]pyrido[1,2-d]pyrazine-8-carboxamide] here?
**A.** 2900 ng/mL

**Q.** And the AUC ([1]; human, in vivo, read-out: AUCtau, geometric mean)?
**A.** 2460 µg·h/mL

**Q.** And the Cmax ([1]; human, in vivo, read-out: Cmax, geometric mean)?
**A.** 4200 ng/mL

**Q.** And the IC50 [2]?
**A.** 810 nM
